Entries after “also recorded” stand apart in the source; their conditions may differ. Structures can show the parent of a compound that is named as a salt.

The values that follow come from US9107909B2, “Materials and methods to enhance hematopoietic stem cells engraftment procedures” (priority 2008, dated 2015).

One assay has as its system SKL cells. The experiment in a line: HSPC homing to bone marrow in vivo. Also on record: species or system mouse. The settings on record: 10 microMolar AMD3100, cells incubated before homing assay; dihydrate. The procedure: CD45.2 WBM was labeled with CFSE (Molecular Probes, Eugene, Oreg.) washed and treated on ice with either 1 microMolar dmPGE2 or vehicle. After treatment, cells were washed and 2×10^7 cells transplanted into lethally irradiated CD45.2 mice. After 16 hours, femurs and tibias were flushed, and a proportion of mouse marrow Lin^+ cells depleted using MACS microbeads (Miltenyi Biotech), stained with fluorochrome-conjugated-antibodies specific for biotin (lineage), c-kit (K), and Sca-1 (S) and the total number of CFSE^+ WBM (non lineage depleted), KL and SKL cells determined. For congenic homing studies, Lin^neg CD45.1 cells were treated on ice with 1 microMolar dmPGE2, vehicle, or PBS. After incubation, cells were washed and 2×10^6 cells transplanted into CD45.2 mice. After 16 hours, recipient bone marrow was harvested, lineage depleted, stained, and donor CD45.1 SKL cells determined. For competitive, head-to-head homing studies using sorted SKL cells, Lin^neg cells from CD45.2 and CD45.1 mice were FACS sorted, cells treated with either dmPGE2 or vehicle for 2 hours, washed and 3×10^4 CD45.1 (vehicle or dmPGE2 treated) plus 3×10^4 CD45.2 (dmPGE2 or vehicle treated) SKL cells transplanted into lethally irradiated F1 Hybrid mice. To evaluate the role of CXCR4 in homing studies, Lin^neg CD45.2 cells were treated on ice with vehicle or 1 microMolar dmPGE2 plus 10 microMolar AMD3100 (AnorMed Inc., Vancouver, BC, Canada) and 2×10^6 treated cells injected into lethally irradiated CD45.1 mice. Homed SKL cells were analyzed 16 hours post-transplant.
Irrespective of its cause a marrow niche is required for HSPC to self-renew and differentiate and it is very likely that only HSPC homing to these niches can provide long-term repopulation. Referring now to FIG. 3A, in order to assess HSPC homing, CFSE labeled whole bone marrow (WBM) CD45.2 cells were pulsed with dmPGE2 or vehicle for 2 hours on ice, washed and injected IV in lethally irradiated CD45.2 hosts. After 16 hours, total CFSE^+ cells homing to bone marrow as well as the number of homed events within the KL and SKL cell populations were quantified.
Highly purified SKL cells from both CD45.2 and CD45.1 mice were isolated by FACS sorting, treated with dmPGE2 or vehicle, and 3×10^4 vehicle-treated CD45.1 cells plus 3×10^4 dmPGE2-treated CD45.2 cells transplanted into CD45.1/CD45.2 mice. An additional cohort was concurrently transplanted with congenic strain and treatment groups were switched to test for any bias in strain homing. […] Although SKL cells are not a homogenous HSPC population, they are highly enriched for LTRC (Okada et al., 1992; Spangrude and Scollay, 1990).
To evaluate the role of CXCR4 in homing, Lineage^neg CD45.2 cells were treated with vehicle or 1 microMolardmPGE2 plus 10 microMolar AMD3100, 2×10^6 treated cells injected into lethally-irradiated CD45.1 mice and homed SKL cells recovered 16 hours post-transplant and analyzed by FACS. Referring now to FIG. 11, homing efficiency of vehicle and dmPGE2 treated cells to bone marrow in the absence and presence of 10 microMolar AMD3100. Cells were incubated with AMD3100 for 30 minutes prior to the homing assay.

A further assay concerns CFU-GM. As to the kind of experiment: CFU-GM mobilization to peripheral blood in mice. In kind it is in vivo, mouse. The settings on record: for CFU-GM / peripheral blood stem cell mobilization with G-CSF: co-administered with G-CSF, 4 days, vs G-CSF alone. The procedure: Since PGE2 increases CXCR4 receptor expression and SDF-1/CXCR4 signalling is important for trafficking and retention of HSPC in the marrow. […] Data are expressed as mean±SEM CFU-GM mobilized per ml of blood for N=3 mice each assayed individually.
Mice were given SC treatments of 150 microgram/kg indomethacin or 150 microgram/kg baicalein (lipoxygenase inhibitor) in gelatin every 48 hours with or without G-CSF for 4 days. CFU-GM mobilization was determined as previously described (Pelus et. al., Experimental Hematology 33 (2005) 295-307). […] Data are expressed as mean±SEM CFU-GM mobilized per ml of blood for N=3 mice each assayed.
Referring now to FIG. 16, mice were given daily, bid SC injections with G-CSF (1 microgram per mouse) or G-CSF+indomethacin (50 microgram per mouse) for 4 days. CFU-GM mobilization was determined as described (Pelus et. al., Experimental Hematology 33 (2005) 295-307).
Mice were given daily, bid SC injections with vehicle or Indomethacin (50 microgram per mouse) for four days. On day 5, mice were given either vehicle or AMD3100 (5 mg/kg). One hour later mice were sacrificed and CFU-GM mobilization was determined as previously described (Pelus et. al., Experimental Hematology 33 (2005) 295-307). […] Data are expressed as mean±SEM, n=5 mice per group, each assayed individually.
Mice were mobilized with G-CSF and CFU-GM in PB was compared to mobilization regimens with G-CSF and the combination of various NSAIDS (Aspirin [COX-1 and COX-2]; Licofelone [COX-2 and 5-LOX]; SC-560 [COX-1]; Valeryl Salicylate [COX-1]; Valdecoxib [COX-2]; NS-398 [COX-2]). […] In order to test the efficacy of two commonly used COX inhibitors, mice were mobilized with G-CSF or the combination of G-CSF and aspirin or ibuprofen (PO., bid, 4 days). CFU-GM was determined as previously described. Referring now to FIG. 28, dose-response analysis of G-CSF+Aspirin and G-CSF+Ibuprofen mobilization of CFU-GM to peripheral blood are present in bar graph form for a control group of mice treated with only G-CSF; for mice treated with G-CSF plus 10, 20 or 40 milligram/kg of aspirin; and for mice treated with G-CSF plus 10, 20 or 40 milligram/kg of ibuprofen. Data are expressed as mean±SEM, n=4 mice per group, each assayed individually.

In a further assay the test system is mobilized PBMC. As to the kind of experiment: Competitive transplantation of mobilized PBMC. In kind it is in vivo, mouse. The settings on record: co-administered with G-CSF without stagger, 12 weeks post transplant, vs G-CSF alone. An excerpt: Data are expressed as mean±SEM, n=5 mice per group, each assayed individually.

With `c1cc(CN2CCCNCCNCCCNCC2)ccc1CN1CCCNCCNCCCNCC1` [AMD3100, 1,1′-[1,4-Phenylenebis(methylene)]bis[1,4,8,11-tetraazacyclotetradecane]octohydrobromide dihydrate], the “effect of CXCR4 antagonist on SKL cell homing and on PGE2-enhanced homing” value with SKL cells was “reduced SKL cell homing and abrogated the improved homing efficiency; also recorded: significantly reduced”.

As to `O=c1cc(-c2ccccc2)oc2cc(O)c(O)c(O)c12` [baicalein], in the assay with CFU-GM (150 μg/kg SC, alone), the “baseline CFU-GM mobilization” value is recorded as “no effect”. In addition, in the assay with CFU-GM, the “CFU-GM / peripheral blood stem cell mobilization with G-CSF” value is reported as “no effect”.

`COc1ccc2c(c1)c(CC(=O)O)c(C)n2C(=O)c1ccc(Cl)cc1` [indomethacin, 2-{1-[(4-chlorophenyl)carbonyl]-5-methoxy-2-methyl-1H-indol-3-yl}acetic acid]: the “engraftment (competitive repopulating units) of mobilized PBMC” value with mobilized PBMC was “no improvement in engraftment”. For the same compound, the “increase in the number of mobilized progenitor cells (CFU-GM)” value in the assay on CFU-GM (150 μg/kg SC once daily for 4 days, alone) is given as 4 fold. The “HSPC (CFU-GM) mobilization in combination with AMD3100” value with CFU-GM (50 microgram per mouse bid SC 4 days, AMD3100 5 mg/kg day 5) is given as “Mobilizes HSPC”. Besides, the “CFU-GM / peripheral blood stem cell mobilization with G-CSF” value in the assay on CFU-GM is “highly synergistic increase; also recorded: larger fold increase”; in the assay on CFU-GM (listed as Indomethacin), “synergistically mobilize; also recorded: synergistic effect”.
